# US20020193283A1, “Inhibitors of prenyl-protein transferase” (priority 2000, published 2002)
# Assay: the assays disclosed below (unspecified, Examples 10-17)
# Details: assays not specified
smiles,measurement,value
"Cc1ncc(CN2CCN(C(=O)OC(C)(C)C)CC2)n1Cc1ccc(C#N)c(Oc2cccc(OCCO)c2)c1 [Example 1 Step G, 1-(tert-butoxycarbonyl)-4-[1-(3-((3-(2-hydroxyethoxy)phenyl)oxy)-4-cyanobenzyl)-2-methyl-5-imidazolylmethyl]piperazine]",activity in the assays disclosed below,active
